Reference: the NIST ThermoML archive (doi:10.1021/je301132p)
± gives the expanded uncertainty stated by the source.

Experiment: mn = molality of the nth substance listed, in mol/kg
Details: Liquid, Vibrating tube method

O=C([O-])O.[Na+] [sodium bicarbonate] + O
mass density (298.11 K, 1100 kPa, m1 = 0.507): 1026.64 ± 0.37 kg/m3
mass density (298.11 K, 1100 kPa, m1 = 1): 1053.32 ± 0.43 kg/m3
mass density (298.11 K, 10100 kPa, m1 = 0.507): 1030.34 ± 0.37 kg/m3
mass density (298.11 K, 10100 kPa, m1 = 1): 1056.9 ± 0.44 kg/m3
mass density (298.11 K, 20100 kPa, m1 = 0.507): 1034.56 ± 0.38 kg/m3
mass density (298.11 K, 20100 kPa, m1 = 1): 1060.94 ± 0.44 kg/m3
mass density (298.11 K, 30100 kPa, m1 = 0.507): 1038.58 ± 0.38 kg/m3
mass density (298.11 K, 30100 kPa, m1 = 1): 1064.78 ± 0.45 kg/m3
mass density (298.11 K, 40100 kPa, m1 = 0.507): 1042.55 ± 0.39 kg/m3
mass density (298.11 K, 40100 kPa, m1 = 1): 1068.62 ± 0.46 kg/m3
mass density (298.11 K, 50100 kPa, m1 = 0.507): 1046.47 ± 0.4 kg/m3
mass density (298.11 K, 50100 kPa, m1 = 1): 1072.42 ± 0.48 kg/m3
mass density (298.11 K, 60100 kPa, m1 = 0.507): 1050.19 ± 0.41 kg/m3
mass density (298.11 K, 60100 kPa, m1 = 1): 1075.95 ± 0.49 kg/m3
mass density (298.11 K, 68600 kPa, m1 = 0.507): 1053.46 ± 0.42 kg/m3
mass density (298.11 K, 68600 kPa, m1 = 1): 1079.05 ± 0.51 kg/m3
mass density (323.13 K, 1100 kPa, m1 = 0.507): 1016.27 ± 0.37 kg/m3
mass density (323.13 K, 1100 kPa, m1 = 1): 1042.1 ± 0.43 kg/m3
mass density (323.13 K, 10100 kPa, m1 = 0.507): 1019.92 ± 0.37 kg/m3
mass density (323.13 K, 10100 kPa, m1 = 1): 1045.63 ± 0.43 kg/m3
mass density (323.13 K, 20100 kPa, m1 = 0.507): 1023.96 ± 0.37 kg/m3
mass density (323.13 K, 20100 kPa, m1 = 1): 1049.49 ± 0.44 kg/m3
mass density (323.13 K, 30100 kPa, m1 = 0.507): 1027.87 ± 0.38 kg/m3
mass density (323.13 K, 30100 kPa, m1 = 1): 1053.27 ± 0.44 kg/m3
mass density (323.13 K, 40100 kPa, m1 = 0.507): 1031.74 ± 0.38 kg/m3
mass density (323.13 K, 40100 kPa, m1 = 1): 1057.11 ± 0.45 kg/m3
mass density (323.13 K, 50100 kPa, m1 = 0.507): 1035.56 ± 0.39 kg/m3
mass density (323.13 K, 50100 kPa, m1 = 1): 1060.81 ± 0.46 kg/m3
mass density (323.13 K, 60100 kPa, m1 = 0.507): 1039.28 ± 0.4 kg/m3
mass density (323.13 K, 60100 kPa, m1 = 1): 1064.4 ± 0.48 kg/m3
mass density (323.13 K, 68600 kPa, m1 = 0.507): 1042.41 ± 0.4 kg/m3
mass density (323.13 K, 68600 kPa, m1 = 1): 1067.35 ± 0.49 kg/m3
mass density (348.12 K, 1100 kPa, m1 = 0.507): 1002.67 ± 0.36 kg/m3
mass density (348.12 K, 1100 kPa, m1 = 1): 1028.17 ± 0.42 kg/m3
mass density (348.12 K, 10100 kPa, m1 = 0.507): 1006.34 ± 0.36 kg/m3
mass density (348.12 K, 10100 kPa, m1 = 1): 1031.76 ± 0.42 kg/m3
mass density (348.12 K, 20100 kPa, m1 = 0.507): 1010.5 ± 0.37 kg/m3
mass density (348.12 K, 20100 kPa, m1 = 1): 1035.74 ± 0.43 kg/m3
mass density (348.12 K, 30100 kPa, m1 = 0.507): 1014.5 ± 0.37 kg/m3
mass density (348.12 K, 30100 kPa, m1 = 1): 1039.62 ± 0.43 kg/m3
mass density (348.12 K, 40100 kPa, m1 = 0.507): 1018.42 ± 0.37 kg/m3
mass density (348.12 K, 40100 kPa, m1 = 1): 1043.26 ± 0.44 kg/m3
mass density (348.12 K, 50100 kPa, m1 = 0.507): 1022.29 ± 0.38 kg/m3
mass density (348.12 K, 50100 kPa, m1 = 1): 1047.06 ± 0.45 kg/m3
mass density (348.12 K, 60100 kPa, m1 = 0.507): 1026.03 ± 0.38 kg/m3
mass density (348.12 K, 60100 kPa, m1 = 1): 1050.67 ± 0.46 kg/m3
mass density (348.12 K, 68600 kPa, m1 = 0.507): 1029.22 ± 0.39 kg/m3
mass density (348.12 K, 68600 kPa, m1 = 1): 1053.84 ± 0.47 kg/m3
mass density (373.12 K, 1100 kPa, m1 = 0.507): 986.45 ± 0.36 kg/m3
mass density (373.12 K, 1100 kPa, m1 = 1): 1011.61 ± 0.42 kg/m3
mass density (373.12 K, 10100 kPa, m1 = 0.507): 990.43 ± 0.36 kg/m3
mass density (373.12 K, 10100 kPa, m1 = 1): 1015.42 ± 0.42 kg/m3
mass density (373.12 K, 20100 kPa, m1 = 0.507): 994.75 ± 0.36 kg/m3
mass density (373.12 K, 20100 kPa, m1 = 1): 1019.51 ± 0.42 kg/m3
mass density (373.12 K, 30100 kPa, m1 = 0.507): 998.96 ± 0.36 kg/m3
mass density (373.12 K, 30100 kPa, m1 = 1): 1023.49 ± 0.42 kg/m3
mass density (373.12 K, 40100 kPa, m1 = 0.507): 1003.05 ± 0.36 kg/m3
mass density (373.12 K, 40100 kPa, m1 = 1): 1027.56 ± 0.43 kg/m3
mass density (373.12 K, 50100 kPa, m1 = 0.507): 1007.05 ± 0.37 kg/m3
mass density (373.12 K, 50100 kPa, m1 = 1): 1031.43 ± 0.43 kg/m3
mass density (373.12 K, 60100 kPa, m1 = 0.507): 1010.74 ± 0.37 kg/m3
mass density (373.12 K, 60100 kPa, m1 = 1): 1035.29 ± 0.44 kg/m3
mass density (373.12 K, 68600 kPa, m1 = 0.507): 1014.16 ± 0.37 kg/m3
mass density (373.12 K, 68600 kPa, m1 = 1): 1038.44 ± 0.45 kg/m3
mass density (398.08 K, 1100 kPa, m1 = 0.507): 967.23 ± 0.36 kg/m3
mass density (398.08 K, 1100 kPa, m1 = 1): 992.49 ± 0.41 kg/m3
mass density (398.08 K, 10100 kPa, m1 = 0.507): 971.5 ± 0.36 kg/m3
mass density (398.08 K, 10100 kPa, m1 = 1): 996.59 ± 0.41 kg/m3
mass density (398.08 K, 20100 kPa, m1 = 0.507): 976.19 ± 0.36 kg/m3
mass density (398.08 K, 20100 kPa, m1 = 1): 1001.1 ± 0.41 kg/m3
mass density (398.08 K, 30100 kPa, m1 = 0.507): 980.67 ± 0.36 kg/m3
mass density (398.08 K, 30100 kPa, m1 = 1): 1005.36 ± 0.42 kg/m3
mass density (398.08 K, 40100 kPa, m1 = 0.507): 985.06 ± 0.36 kg/m3
mass density (398.08 K, 40100 kPa, m1 = 1): 1009.57 ± 0.42 kg/m3
mass density (398.08 K, 50100 kPa, m1 = 0.507): 989.37 ± 0.36 kg/m3
mass density (398.08 K, 50100 kPa, m1 = 1): 1013.71 ± 0.42 kg/m3
mass density (398.08 K, 60100 kPa, m1 = 0.507): 993.56 ± 0.36 kg/m3
mass density (398.08 K, 60100 kPa, m1 = 1): 1017.88 ± 0.43 kg/m3
mass density (398.08 K, 68600 kPa, m1 = 0.507): 996.98 ± 0.36 kg/m3
mass density (398.08 K, 68600 kPa, m1 = 1): 1021.02 ± 0.43 kg/m3
mass density (423.07 K, 1100 kPa, m1 = 0.507): 945.6 ± 0.35 kg/m3
mass density (423.07 K, 1100 kPa, m1 = 1): 971.16 ± 0.41 kg/m3
mass density (423.07 K, 10100 kPa, m1 = 0.507): 950.33 ± 0.36 kg/m3
mass density (423.07 K, 10100 kPa, m1 = 1): 975.62 ± 0.41 kg/m3
mass density (423.07 K, 20100 kPa, m1 = 0.507): 955.52 ± 0.36 kg/m3
mass density (423.07 K, 20100 kPa, m1 = 1): 980.58 ± 0.41 kg/m3
mass density (423.07 K, 30100 kPa, m1 = 0.507): 960.51 ± 0.36 kg/m3
mass density (423.07 K, 30100 kPa, m1 = 1): 985.4 ± 0.41 kg/m3
mass density (423.07 K, 40100 kPa, m1 = 0.507): 965.22 ± 0.37 kg/m3
mass density (423.07 K, 40100 kPa, m1 = 1): 989.89 ± 0.41 kg/m3
mass density (423.07 K, 50100 kPa, m1 = 0.507): 969.93 ± 0.37 kg/m3
mass density (423.07 K, 50100 kPa, m1 = 1): 994.52 ± 0.41 kg/m3
mass density (423.07 K, 60100 kPa, m1 = 0.507): 974.48 ± 0.37 kg/m3
mass density (423.07 K, 60100 kPa, m1 = 1): 998.85 ± 0.41 kg/m3
mass density (423.07 K, 68600 kPa, m1 = 0.507): 978.13 ± 0.37 kg/m3
mass density (423.07 K, 68600 kPa, m1 = 1): 1002.43 ± 0.41 kg/m3
mass density (448.03 K, 1100 kPa, m1 = 0.507): 921.6 ± 0.35 kg/m3
mass density (448.03 K, 1100 kPa, m1 = 1): 947.75 ± 0.4 kg/m3
mass density (448.03 K, 10100 kPa, m1 = 0.507): 926.98 ± 0.36 kg/m3
mass density (448.03 K, 10100 kPa, m1 = 1): 952.76 ± 0.4 kg/m3
mass density (448.03 K, 20100 kPa, m1 = 0.507): 932.57 ± 0.36 kg/m3
mass density (448.03 K, 20100 kPa, m1 = 1): 958.38 ± 0.41 kg/m3
mass density (448.03 K, 30100 kPa, m1 = 0.507): 938.23 ± 0.37 kg/m3
mass density (448.03 K, 30100 kPa, m1 = 1): 963.67 ± 0.41 kg/m3
mass density (448.03 K, 40100 kPa, m1 = 0.507): 943.62 ± 0.38 kg/m3
mass density (448.03 K, 40100 kPa, m1 = 1): 968.83 ± 0.41 kg/m3
mass density (448.03 K, 50100 kPa, m1 = 0.507): 948.68 ± 0.38 kg/m3
mass density (448.03 K, 50100 kPa, m1 = 1): 973.77 ± 0.41 kg/m3
mass density (448.03 K, 60100 kPa, m1 = 0.507): 953.67 ± 0.38 kg/m3
mass density (448.03 K, 60100 kPa, m1 = 1): 978.58 ± 0.42 kg/m3
mass density (448.03 K, 68600 kPa, m1 = 0.507): 957.69 ± 0.39 kg/m3
mass density (448.03 K, 68600 kPa, m1 = 1): 982.48 ± 0.42 kg/m3
mass density (473.02 K, 10100 kPa, m1 = 0.507): 900.8 ± 0.36 kg/m3
mass density (473.02 K, 10100 kPa, m1 = 1): 927.94 ± 0.4 kg/m3
mass density (473.02 K, 20100 kPa, m1 = 0.507): 907.44 ± 0.37 kg/m3
mass density (473.02 K, 20100 kPa, m1 = 1): 934.21 ± 0.41 kg/m3
mass density (473.02 K, 30100 kPa, m1 = 0.507): 913.71 ± 0.38 kg/m3
mass density (473.02 K, 30100 kPa, m1 = 1): 940.3 ± 0.42 kg/m3
mass density (473.02 K, 40100 kPa, m1 = 0.507): 919.81 ± 0.39 kg/m3
mass density (473.02 K, 40100 kPa, m1 = 1): 946.08 ± 0.42 kg/m3
mass density (473.02 K, 50100 kPa, m1 = 0.507): 925.55 ± 0.4 kg/m3
mass density (473.02 K, 50100 kPa, m1 = 1): 951.65 ± 0.42 kg/m3
mass density (473.02 K, 60100 kPa, m1 = 0.507): 931 ± 0.41 kg/m3
mass density (473.02 K, 60100 kPa, m1 = 1): 956.83 ± 0.43 kg/m3
mass density (473.02 K, 68600 kPa, m1 = 0.507): 935.54 ± 0.41 kg/m3
mass density (473.02 K, 68600 kPa, m1 = 1): 961.25 ± 0.43 kg/m3
